Results on 29 compounds are retold here after the NIST ThermoML archive (doi:10.1021/je0602723).

This data set is described as follows: activity coefficient (dimensionless); of the first substance listed, at infinite dilution; xn = mol fraction of the nth substance listed. The conditions noted are these: Liquid, Chromatography, x1 = 0.

Each structure is given as a SMILES string. ± gives the expanded uncertainty stated by the source.

In the case of `CC#N` [acetonitrile] + CCOS(=O)(=O)[O-].CCn1cc[n+](C)c1, the activity coefficient (312.2 K) is 0.81 ± 0.05, the activity coefficient (333.4 K) was found to be 0.8 ± 0.05, the activity coefficient (343.9 K) amounted to 0.78 ± 0.05 and the activity coefficient (354.3 K) came to 0.77 ± 0.05.
For the compound `CC(C)(C)O` [2-methylpropan-2-ol] + CCOS(=O)(=O)[O-].CCn1cc[n+](C)c1, the activity coefficient is 2.02 ± 0.14 (302 K); 1.86 ± 0.13 (312.4 K); 1.74 ± 0.12 (322.9 K); 1.64 ± 0.11 (333.4 K); 1.57 ± 0.1 (343.9 K); 1.49 ± 0.1 (354.4 K).
For `CCCO` [propan-1-ol] + CCOS(=O)(=O)[O-].CCn1cc[n+](C)c1, the activity coefficient is 1.23 ± 0.08 (322.8 K); 1.12 ± 0.07 (333.5 K); 1.05 ± 0.07 (343.9 K); 0.91 ± 0.06 (364.9 K); 0.87 ± 0.06 (375.4 K).
As for `CCCCO` [butan-1-ol] + CCOS(=O)(=O)[O-].CCn1cc[n+](C)c1, the activity coefficient is, setting by setting: (323 K) 1.68 ± 0.11; (333.4 K) 1.59 ± 0.11; (343.8 K) 1.5 ± 0.1; (354.2 K) 1.42 ± 0.09; (365 K) 1.29 ± 0.08.
For `CC(C)CO` [2-methyl-1-propanol] + CCOS(=O)(=O)[O-].CCn1cc[n+](C)c1, the activity coefficient came to 1.65 ± 0.11 (322.7 K); 1.51 ± 0.1 (333.4 K); 1.43 ± 0.09 (343.9 K); 1.24 ± 0.08 (357.2 K); 1.17 ± 0.07 (386 K).
Consider `CCC(=O)OC` [methyl propanoate] + CCOS(=O)(=O)[O-].CCn1cc[n+](C)c1, for which the activity coefficient (322.9 K) worked out at 4.73 ± 0.32; the activity coefficient (333.5 K) amounted to 4.58 ± 0.31; the activity coefficient (344 K) was found to be 4.38 ± 0.3; the activity coefficient (354.5 K) was determined as 4.1 ± 0.28; the activity coefficient (364.9 K) worked out at 3.86 ± 0.26; the activity coefficient (375.3 K) was 3.61 ± 0.25.
Take `CCCC=O` [butanal] + CCOS(=O)(=O)[O-].CCn1cc[n+](C)c1: the activity coefficient runs as follows: (322.8 K) 3.47 ± 0.24; (333.4 K) 3.39 ± 0.23; (344 K) 3.35 ± 0.23; (354.5 K) 3.29 ± 0.22; (364.9 K) 3.23 ± 0.22; (375.3 K) 3.2 ± 0.22. Besides, the activity coefficient (385.9 K) worked out at 3.14 ± 0.21.
Consider `CO` [methanol] + CCOS(=O)(=O)[O-].CCn1cc[n+](C)c1, for which the activity coefficient is 0.41 ± 0.03 (312.4 K); 0.4 ± 0.03 (323 K); 0.39 ± 0.03 (333.4 K); 0.38 ± 0.03 (343.8 K); 0.36 ± 0.03 (354.2 K).
As to `CCCCC=O` [pentanal] + CCOS(=O)(=O)[O-].CCn1cc[n+](C)c1, the activity coefficient came out at 5.19 ± 0.35 (333.5 K); 5.1 ± 0.35 (343.9 K); 4.96 ± 0.34 (354.4 K); 4.82 ± 0.33 (364.8 K); 4.69 ± 0.32 (375.2 K).
As to `CCCCCc1ccccc1` [pentylbenzene] + CCOS(=O)(=O)[O-].CCn1cc[n+](C)c1, the activity coefficient was 43.5 ± 3 (354.3 K); 40.3 ± 2.8 (364.8 K); 38 ± 2.6 (375.1 K); 35 ± 2.4 (385.7 K); 32.4 ± 2.2 (396.1 K).
In the case of `CCc1ccccc1` [ethylbenzene] + CCOS(=O)(=O)[O-].CCn1cc[n+](C)c1, the activity coefficient runs as follows: (354.3 K) 9.16 ± 0.62; (364.7 K) 8.71 ± 0.59; (375.1 K) 8.21 ± 0.56; (385.7 K) 7.77 ± 0.53.
As to `CCCCCC(=O)OC` [methyl hexanoate] + CCOS(=O)(=O)[O-].CCn1cc[n+](C)c1, the activity coefficient is 20.1 ± 1.4 (301.7 K), 19.2 ± 1.3 (312.4 K), 17 ± 1.2 (333.4 K) and 15.9 ± 1.1 (343.9 K).
For `CCC(C)(C)O` [2-methylbutan-2-ol] + CCOS(=O)(=O)[O-].CCn1cc[n+](C)c1, the activity coefficient (302 K) worked out at 2.51 ± 0.17; the activity coefficient (312.4 K) came out at 2.44 ± 0.17; the activity coefficient (333.4 K) was 2.21 ± 0.15; the activity coefficient (343.9 K) is 2.14 ± 0.15; the activity coefficient (354.4 K) turned out to be 2.07 ± 0.14.
Take `CCCCC(=O)OC` [methyl pentanoate] + CCOS(=O)(=O)[O-].CCn1cc[n+](C)c1: the activity coefficient (333.6 K) was 11.6 ± 0.79; the activity coefficient (344.1 K) came out at 10.9 ± 0.74; the activity coefficient (354.5 K) is 10.2 ± 0.69; the activity coefficient (364.9 K) came to 9.42 ± 0.64; the activity coefficient (375.4 K) worked out at 8.57 ± 0.58; the activity coefficient (385.9 K) is 7.75 ± 0.53.
Take `CC(C)=O` [acetone] + CCOS(=O)(=O)[O-].CCn1cc[n+](C)c1: the activity coefficient reads like this: (323.1 K) 1.64 ± 0.11; (333.6 K) 1.63 ± 0.11; (343.9 K) 1.61 ± 0.11; (365 K) 1.56 ± 0.1; (375.4 K) 1.54 ± 0.1; (386 K) 1.5 ± 0.1.
As for `CCCc1ccccc1` [propylbenzene] + CCOS(=O)(=O)[O-].CCn1cc[n+](C)c1, the activity coefficient runs as follows: (343.8 K) 16.8 ± 1.1; (354.3 K) 15.7 ± 1.1; (364.7 K) 14.9 ± 1; (375.1 K) 14 ± 0.95; (385.7 K) 13.2 ± 0.9.
For the compound `CCCCCCO` [hexan-1-ol] + CCOS(=O)(=O)[O-].CCn1cc[n+](C)c1, the activity coefficient reads like this: (343.8 K) 3.52 ± 0.24; (354.2 K) 3.27 ± 0.22; (364.9 K) 3.06 ± 0.21; (375.2 K) 2.81 ± 0.19.
As to `CCCCCCCC=O` [octanal] + CCOS(=O)(=O)[O-].CCn1cc[n+](C)c1, the activity coefficient is, setting by setting: (303.3 K) 29.8 ± 2; (312.2 K) 28.3 ± 1.9; (322.8 K) 27.1 ± 1.9; (333.3 K) 26.1 ± 1.8; (343.8 K) 25.5 ± 1.7.
For the compound `CCCCCCCCCC` [decane] + CCOS(=O)(=O)[O-].CCn1cc[n+](C)c1, the activity coefficient is, setting by setting: (301.8 K) 504 ± 35; (312.4 K) 445 ± 31; (322.9 K) 389 ± 27; (333.5 K) 331 ± 23.
Consider `C1COCCO1` [1,4-dioxane] + CCOS(=O)(=O)[O-].CCn1cc[n+](C)c1, for which the activity coefficient by setting is: (312.4 K) 2.1 ± 0.14; (333.4 K) 2.08 ± 0.14; (354.2 K) 2.06 ± 0.14.
On to `CCC=O` [propanal] + CCOS(=O)(=O)[O-].CCn1cc[n+](C)c1, for which the activity coefficient reads like this: (333.5 K) 1.94 ± 0.13; (343.9 K) 1.9 ± 0.13; (354.4 K) 1.84 ± 0.12; (364.8 K) 1.8 ± 0.12; (375.2 K) 1.74 ± 0.12.
As for `ON=C1CCCCC1` [cyclohexanone oxime] + CCOS(=O)(=O)[O-].CCn1cc[n+](C)c1, the activity coefficient (417.2 K) came out at 0.57 ± 0.04 and the activity coefficient (427.5 K) is 0.41 ± 0.03.
For the compound `CCCCCCCCC` [nonane] + CCOS(=O)(=O)[O-].CCn1cc[n+](C)c1, the activity coefficient turned out to be 357 ± 25 (301.8 K), 304 ± 21 (312.4 K), 249 ± 17 (322.9 K) and 200 ± 14 (333.5 K).
`CCCC(=O)OC` [methyl butanoate] + CCOS(=O)(=O)[O-].CCn1cc[n+](C)c1: the activity coefficient (344 K) came out at 7.29 ± 0.5; the activity coefficient (354.5 K) amounted to 6.88 ± 0.47; the activity coefficient (364.9 K) amounted to 6.58 ± 0.45; the activity coefficient (375.4 K) was determined as 6.26 ± 0.43; the activity coefficient (385.9 K) worked out at 5.9 ± 0.4.
Take `CCCCCCC(=O)OC` [methyl heptanoate] + CCOS(=O)(=O)[O-].CCn1cc[n+](C)c1: the activity coefficient (301.8 K) was found to be 29.8 ± 2, the activity coefficient (312.4 K) came to 28.4 ± 1.9, the activity coefficient (322.9 K) turned out to be 27.1 ± 1.9 and the activity coefficient (333.4 K) amounted to 25.5 ± 1.8.
`CCO` [ethanol] + CCOS(=O)(=O)[O-].CCn1cc[n+](C)c1: the activity coefficient is 0.86 ± 0.06 (302.4 K); 0.79 ± 0.05 (322.8 K); 0.73 ± 0.05 (333.5 K); 0.69 ± 0.05 (343.9 K); 0.67 ± 0.05 (354.3 K).
Turning to `Cc1ccccc1` [toluene] + CCOS(=O)(=O)[O-].CCn1cc[n+](C)c1, the activity coefficient (312.3 K) came to 5.77 ± 0.39; the activity coefficient (323 K) is 5.62 ± 0.38; the activity coefficient (333.5 K) worked out at 5.45 ± 0.37; the activity coefficient (343.9 K) amounted to 5.29 ± 0.36; the activity coefficient (354.4 K) is 5.08 ± 0.35; the activity coefficient (364.7 K) is 4.88 ± 0.33.
As for `CCC(C)O` (centres undefined) [butan-2-ol] + CCOS(=O)(=O)[O-].CCn1cc[n+](C)c1, the activity coefficient runs as follows: (312.5 K) 1.93 ± 0.13; (333.4 K) 1.65 ± 0.11; (344 K) 1.56 ± 0.1; (354.5 K) 1.45 ± 0.1; (364.9 K) 1.42 ± 0.09.
With `CCCCCCCC` [octane] + CCOS(=O)(=O)[O-].CCn1cc[n+](C)c1, the activity coefficient by setting is: (301.9 K) 221 ± 15; (312.5 K) 184 ± 13; (322.9 K) 148 ± 10; (333.5 K) 119 ± 8.2.
